Six molecules from ChEMBL document CHEMBL5727262, “Tricyclic compound and JAK inhibitor” (2019) can be followed below.

The target of test [1] is Tyrosine-protein kinase JAK2 (Homo sapiens, UniProt O60674). The experiment in a line: (§1) Enzyme Assay: The JAK inhibitory activities of compounds of the present invention were measured.The enzymes (JAK1, JAK2, JAK3 and Tyk2) were purchased from Carna Biosciences, Inc.As the substrate for the enzymes (hereinafter referred to as the substrate), LANCE Ultra ULight-JAK-1 (Tyr1023) Peptide (manufactured by PerkinElmer Co., Ltd.) was used.As the antibody for detecting phosphorylation of the substrate, LANCE Ultra Europium-anti-phospho tyrosine antibody (PT66) (manufactured by PerkinElmer Co., Ltd.) was used.The other reagents are purchased from the following suppliers.Adenosine triphosphate (ATP): Sigma-Aldrich4-(2-Hydroxyethyl)-1-piperazineethanesulfonic acid (HEPES): DOJINDO LABORATORIESGlycol ether diamine tetraacetic acid (EGTA): DOJINDO LABORATORIESMagnesium chloride (MgCl2): Wako Pure Chemical Industries, Ltd.Dithiothreitol (DTT): Wako Pure Chemical Industries, Ltd.Tween 20: Sigma-AldrichEthylenediaminetetraacetic acid (EDTA): DOJINDO LABORATORIESThe compounds of the present invention, the enzymes (JAK1, JAK2, JAK3 and Tyk2), the substrate and ATP were used for the assays after diluted with the assay buffer.The composition of the assay buffer is given below.HEPES (pH7.5): 50 mMEGTA: 1 mMMgCl2: 10 mMDTT: 2 mMTween 20: 0.01% (wt/wt)Dilutions were made at such concentrations and dispensed on a well plate, which will be described later, in such volumes that the following final concentrations would be achieved on the well plate. A general note: In TR-FRET formats the signal depends on donor and acceptor labels being close together.
Tyrosine-protein kinase JAK2, sequence (O60674 whole entry): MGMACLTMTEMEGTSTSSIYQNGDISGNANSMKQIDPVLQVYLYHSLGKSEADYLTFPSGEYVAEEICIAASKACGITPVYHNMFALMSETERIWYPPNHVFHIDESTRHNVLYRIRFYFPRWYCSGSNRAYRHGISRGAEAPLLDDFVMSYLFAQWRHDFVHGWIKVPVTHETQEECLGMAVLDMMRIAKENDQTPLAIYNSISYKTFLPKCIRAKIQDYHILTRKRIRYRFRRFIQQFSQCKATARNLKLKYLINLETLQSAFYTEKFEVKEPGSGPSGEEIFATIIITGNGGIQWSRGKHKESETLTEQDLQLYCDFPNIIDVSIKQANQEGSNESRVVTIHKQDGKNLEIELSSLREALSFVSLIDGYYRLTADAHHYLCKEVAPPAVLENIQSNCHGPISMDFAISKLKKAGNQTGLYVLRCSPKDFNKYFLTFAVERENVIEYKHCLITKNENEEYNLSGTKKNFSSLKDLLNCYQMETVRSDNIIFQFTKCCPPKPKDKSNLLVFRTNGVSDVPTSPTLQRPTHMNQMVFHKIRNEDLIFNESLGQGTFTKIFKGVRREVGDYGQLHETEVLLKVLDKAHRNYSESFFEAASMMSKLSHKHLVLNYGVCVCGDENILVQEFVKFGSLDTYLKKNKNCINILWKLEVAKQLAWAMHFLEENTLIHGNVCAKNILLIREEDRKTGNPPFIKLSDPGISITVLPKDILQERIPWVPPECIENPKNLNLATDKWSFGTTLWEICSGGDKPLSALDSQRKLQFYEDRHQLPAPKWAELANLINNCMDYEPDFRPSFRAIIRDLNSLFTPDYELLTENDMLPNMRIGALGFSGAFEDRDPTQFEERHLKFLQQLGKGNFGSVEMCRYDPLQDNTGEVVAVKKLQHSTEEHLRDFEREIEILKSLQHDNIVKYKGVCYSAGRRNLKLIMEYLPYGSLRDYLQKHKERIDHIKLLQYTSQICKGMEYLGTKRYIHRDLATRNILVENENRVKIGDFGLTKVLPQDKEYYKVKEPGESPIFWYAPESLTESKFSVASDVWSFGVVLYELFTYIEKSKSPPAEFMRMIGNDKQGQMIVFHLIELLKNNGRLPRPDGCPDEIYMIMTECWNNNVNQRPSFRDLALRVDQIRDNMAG

Test [2] has as its target Tyrosine-protein kinase JAK1 (Homo sapiens, UniProt P23458). The test is described as §1, with “plate. The enzyme concentrations and the ATP concentrations in the respective enzyme (JAK1, JAK2, JAK3 and Tyk2) assays were as follows.JAK1 enzyme assay; the enzyme concentration was 0.5 μg/mL, and the ATP concentration was 70 μM.JAK2 enzyme assay; the enzyme concentration was 0.013 μg/mL, and the ATP concentration was 10 μM.JAK3 enzyme assay; the enzyme concentration was 0.020 μg/mL, and the ATP concentration was 3 μM.Tyk2 enzyme assay; the enzyme concentration was 0.25 μg/mL and the ATP concentration was 20 μM.The concentration of the substrate for the enzymes was 25 nM.The concentration of EDTA was 15 mM.The concentration of PT66 was 2 nM.” for “plate.”.

Test [3] addresses Non-receptor tyrosine-protein kinase TYK2 (Homo sapiens, UniProt P29597). Described as above.
For test [4], the target named is T1, Tyrosine-protein kinase JAK3 (Homo sapiens, UniProt P52333).
T1 sequence (P52333 whole entry): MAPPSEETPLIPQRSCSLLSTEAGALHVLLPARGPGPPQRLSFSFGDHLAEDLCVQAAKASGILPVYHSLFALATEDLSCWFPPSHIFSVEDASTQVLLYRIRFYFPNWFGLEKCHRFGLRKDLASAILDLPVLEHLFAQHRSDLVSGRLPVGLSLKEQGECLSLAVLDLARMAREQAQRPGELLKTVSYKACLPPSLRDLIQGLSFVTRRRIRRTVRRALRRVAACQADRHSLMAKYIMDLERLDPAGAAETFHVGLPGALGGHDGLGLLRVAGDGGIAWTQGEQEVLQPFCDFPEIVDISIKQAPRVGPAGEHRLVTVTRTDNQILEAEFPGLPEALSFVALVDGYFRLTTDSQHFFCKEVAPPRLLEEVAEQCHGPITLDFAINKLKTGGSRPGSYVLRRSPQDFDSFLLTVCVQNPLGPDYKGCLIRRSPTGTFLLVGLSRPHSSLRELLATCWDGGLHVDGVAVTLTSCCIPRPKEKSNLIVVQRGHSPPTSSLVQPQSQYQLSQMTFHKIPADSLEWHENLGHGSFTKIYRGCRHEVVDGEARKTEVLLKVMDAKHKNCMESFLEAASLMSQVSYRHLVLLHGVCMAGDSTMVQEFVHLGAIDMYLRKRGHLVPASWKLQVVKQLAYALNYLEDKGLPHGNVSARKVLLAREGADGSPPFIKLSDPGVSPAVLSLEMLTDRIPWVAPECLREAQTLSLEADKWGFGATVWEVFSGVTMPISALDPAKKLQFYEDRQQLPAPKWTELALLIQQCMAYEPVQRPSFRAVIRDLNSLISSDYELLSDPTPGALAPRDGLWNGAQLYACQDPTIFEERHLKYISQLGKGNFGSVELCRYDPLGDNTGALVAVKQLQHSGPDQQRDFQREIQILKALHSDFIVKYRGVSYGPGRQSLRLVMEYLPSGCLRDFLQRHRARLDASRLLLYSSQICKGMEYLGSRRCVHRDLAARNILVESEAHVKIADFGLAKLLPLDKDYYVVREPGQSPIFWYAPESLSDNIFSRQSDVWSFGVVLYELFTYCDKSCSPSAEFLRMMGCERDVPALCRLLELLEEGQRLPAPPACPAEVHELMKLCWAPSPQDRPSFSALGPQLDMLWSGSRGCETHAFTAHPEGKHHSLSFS
Described as above.

Tyrosine-protein kinase JAK1, sequence (P23458 whole entry): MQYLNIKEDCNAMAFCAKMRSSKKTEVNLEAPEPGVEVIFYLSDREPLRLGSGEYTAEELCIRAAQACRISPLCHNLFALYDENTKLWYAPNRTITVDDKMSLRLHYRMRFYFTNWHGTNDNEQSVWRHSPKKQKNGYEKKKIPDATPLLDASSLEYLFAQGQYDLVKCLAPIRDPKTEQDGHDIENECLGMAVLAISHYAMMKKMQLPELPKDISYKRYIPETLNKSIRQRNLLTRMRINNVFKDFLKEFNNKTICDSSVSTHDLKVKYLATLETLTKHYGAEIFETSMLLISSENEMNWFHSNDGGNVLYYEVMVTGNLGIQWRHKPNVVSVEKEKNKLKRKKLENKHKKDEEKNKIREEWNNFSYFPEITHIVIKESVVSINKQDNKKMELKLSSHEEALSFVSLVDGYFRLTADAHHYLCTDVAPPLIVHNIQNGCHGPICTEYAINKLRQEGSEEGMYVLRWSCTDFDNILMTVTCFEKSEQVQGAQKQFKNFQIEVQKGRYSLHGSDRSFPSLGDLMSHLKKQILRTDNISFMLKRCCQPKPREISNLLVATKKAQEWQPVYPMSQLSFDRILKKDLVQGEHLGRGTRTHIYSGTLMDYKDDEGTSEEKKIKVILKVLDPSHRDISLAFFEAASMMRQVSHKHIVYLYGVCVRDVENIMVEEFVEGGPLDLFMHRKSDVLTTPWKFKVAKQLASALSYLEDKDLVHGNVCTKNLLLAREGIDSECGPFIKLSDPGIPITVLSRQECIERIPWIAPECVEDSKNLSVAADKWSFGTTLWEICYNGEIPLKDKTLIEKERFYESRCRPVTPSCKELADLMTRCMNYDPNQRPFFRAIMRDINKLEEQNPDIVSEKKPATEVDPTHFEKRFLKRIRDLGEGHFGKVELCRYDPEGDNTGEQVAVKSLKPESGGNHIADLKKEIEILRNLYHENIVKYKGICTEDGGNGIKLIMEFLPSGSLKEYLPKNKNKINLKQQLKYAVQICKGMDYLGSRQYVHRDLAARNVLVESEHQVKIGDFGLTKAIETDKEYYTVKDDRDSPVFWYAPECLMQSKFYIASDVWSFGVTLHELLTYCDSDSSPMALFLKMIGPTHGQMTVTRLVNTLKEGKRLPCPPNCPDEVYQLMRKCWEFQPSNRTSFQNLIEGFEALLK
Non-receptor tyrosine-protein kinase TYK2, sequence (P29597 whole entry): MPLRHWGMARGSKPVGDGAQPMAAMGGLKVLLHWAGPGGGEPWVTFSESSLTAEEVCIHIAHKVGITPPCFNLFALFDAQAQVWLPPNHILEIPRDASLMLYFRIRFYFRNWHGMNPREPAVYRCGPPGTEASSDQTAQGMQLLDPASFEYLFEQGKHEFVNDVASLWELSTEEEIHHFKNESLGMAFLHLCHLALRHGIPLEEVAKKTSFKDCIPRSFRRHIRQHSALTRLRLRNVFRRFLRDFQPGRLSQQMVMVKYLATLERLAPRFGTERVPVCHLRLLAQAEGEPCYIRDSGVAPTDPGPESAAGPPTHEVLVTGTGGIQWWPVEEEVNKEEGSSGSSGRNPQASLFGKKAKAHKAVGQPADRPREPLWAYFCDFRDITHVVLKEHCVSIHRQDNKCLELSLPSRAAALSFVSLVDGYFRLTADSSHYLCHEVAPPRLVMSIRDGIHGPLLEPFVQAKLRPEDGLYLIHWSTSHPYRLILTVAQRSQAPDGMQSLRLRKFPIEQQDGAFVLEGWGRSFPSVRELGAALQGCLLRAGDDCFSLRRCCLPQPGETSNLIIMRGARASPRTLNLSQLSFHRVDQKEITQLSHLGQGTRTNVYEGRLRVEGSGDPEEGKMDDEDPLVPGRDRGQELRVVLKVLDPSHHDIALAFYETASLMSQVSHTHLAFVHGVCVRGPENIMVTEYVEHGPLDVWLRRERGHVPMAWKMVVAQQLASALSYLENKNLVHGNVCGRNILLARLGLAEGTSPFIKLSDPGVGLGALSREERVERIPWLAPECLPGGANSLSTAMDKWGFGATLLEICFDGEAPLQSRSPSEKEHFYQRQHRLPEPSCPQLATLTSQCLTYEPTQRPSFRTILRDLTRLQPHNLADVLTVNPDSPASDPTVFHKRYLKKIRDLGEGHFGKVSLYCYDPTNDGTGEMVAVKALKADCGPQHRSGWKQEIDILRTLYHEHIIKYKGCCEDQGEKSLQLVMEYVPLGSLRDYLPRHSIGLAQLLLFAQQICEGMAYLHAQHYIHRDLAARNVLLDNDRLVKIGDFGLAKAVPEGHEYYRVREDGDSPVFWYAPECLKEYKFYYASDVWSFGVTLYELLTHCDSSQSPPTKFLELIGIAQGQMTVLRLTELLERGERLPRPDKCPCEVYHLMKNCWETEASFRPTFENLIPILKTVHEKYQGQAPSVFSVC

As usually defined, the IC50 is the midpoint of a concentration-inhibition curve. Take `N#CC[C@H](OCC1CCC(N2C=CC(=O)C3C=Nc4[nH]ccc4C32)CC1)C(F)(F)F` (stereo partly drawn): the IC50 in test [1] came to 2 nM; in test [2], 0.74 nM; in test [3], 11 nM; in test [4], 5.1 nM.

On to `O=C1NC(=O)[C@@H](C2CCC(COCCC(F)(F)F)CC2)C2c3cc[nH]c3N=CC12` (stereo partly drawn), for which the IC50 is 1.5 nM in test [1], 0.35 nM in test [2], 26 nM in test [3] and 2.9 nM in test [4].

In the case of `O=C1C=CN(C2CCC(COCC(F)(F)F)CC2)C2c3cc[nH]c3N=CC12` (stereo not drawn), the IC50 in test [2] is 0.59 nM; in test [3] it was 10 nM; in test [4], 2.7 nM.

Turning to `N#CC[C@@H](NCC1CCC(N2C=CC(=O)C3C=Nc4[nH]ccc4C32)CC1)C(F)(F)F` (stereo partly drawn), the IC50 in test [1] is 5.1 nM; in test [2] it was 1.7 nM; in test [3], 18 nM; in test [4], 10 nM.

Consider `Cc1cnn(CC2CCC(N3C=CC(=O)C4C=Nc5[nH]ccc5C43)CC2)c1` (stereo not drawn), for which the 50% inhibitory concentration (IC50) in test [1] is 1.9 nM; in test [2] it was 0.41 nM; in test [3], 39 nM; in test [4] it was 7.1 nM.

On to `O=C1C=CN(C2CCC(COCCC(F)(F)F)CC2)C2c3cc[nH]c3N=CC12` (stereo not drawn), for which the IC50 in test [1] came out at 1.6 nM; in test [2], 0.68 nM; in test [3], 19 nM; in test [4], 2.5 nM.
